# In patent US20040166178A1, “3-O-acetyl-11-ketoboswellic acid for relaxing the skin” (L'OREAL, priority 2003, published 2004):
# How the values were obtained:
# [1] = system: calcium channels; assay: model of calcium flux; type: cell-based; conditions: compared with beta-boswellic acid, 3-O-acetylboswellic acid and 11-ketoboswellic acid
# Procedure: The four pentacyclic triterpene acids contained, according to the literature, in extract of Boswellia serrata, namely beta-boswellic acid, 3-O-acetylboswellic acid, 11-ketoboswellic acid and 3-O-acetyl-11-ketoboswellic acid, were tested in a model of calcium flux in order to evaluate their capacity for inhibiting calcium channels and therefore their ability to relax lines and smooth out expression lines.
# [2] = system: human striated muscle cells innervated with explants of spinal cord and spinal ganglia from rat embryos; assay: nerve-muscle coculture model, inhibition of muscle fibre contractions; type: cell-based; conditions: for contraction-inhibiting effect: test identical to Example 1
# Procedure: Three extracts of Boswellia serrata were tested on a nerve-muscle coculture model which makes it possible to recreate a motor arc by innovating human striated muscle cells with explants of spinal cord and of spinal ganglia from rat embryos.
# Human muscle cells derived from human muscle samples from a healthy donor are seeded in 15 mm-diameter wells (24-well culture dishes). After culturing for 10 days, these cells form a monolayer and fuse. At this stage, spinal cord explants from 13-day-old rat embryos, containing the spinal ganglion, are deposited onto the culture.
# The first muscle fibre contractions are observed after coculturing for one week.
# A muscle fibre having regular contractions (at least 60 contractions per minute) is then selected in three different culture wells and the number of contractions is counted over 30 seconds using image analysis software. The extracts tested, diluted in ethanol, are then incubated for 60 seconds in these wells, at the concentrations C1 and C2 of 0.005% and 0.01%. At the end of the incubation, the number of contractions is again counted over 30 seconds.
# The percentage of inhibited contractions is then determined.
# [3] = anti-wrinkle activity in vivo
Compound,relaxing effect (capacity for inhibiting calcium channels) [1],contraction-inhibiting effect ([2]; 5 μM) [%],contraction-inhibiting effect ([2]; 10 μM) [%],anti-wrinkle activity [3],muscle fibre contractions ([2]; earlier demonstration by the applicant)
CC(=O)O[C@@H]1CC[C@@]2(C)[C@@H](CC[C@]3(C)[C@@H]2C(=O)C=C2[C@@H]4[C@@H](C)[C@H](C)CC[C@]4(C)CC[C@]23C)[C@@]1(C)C(=O)O [3-O-acetyl-11-ketoboswellic acid],clearly greater than that obtained for the other three acids tested,74.7,87,,
"CN1C(=O)CN=C(c2ccccc2)c2cc(Cl)ccc21 [diazepam, reference compound]",,,,demonstrated in vivo,inhibited muscle fibre contractions
